Measured values published in patent publication US8349835B2, “Aromatic ring fused triazine derivatives and uses thereof” (Shenyang Pharmaceutical University, priority 2008, dated 2013).

Key:
[1] = in vivo; details: both sexes, mouse, intraperitoneal, Kunming mice, peritoneal injection, single administration, observed for one week
Procedure: 9) Acute Toxicity Testing
Animals: healthy mice of Kunming species, female and male each account for 50%, and the weights range from 18 to 22 g. All the mice were obtained from the laboratory animal center of Shenyang Pharmaceutical University. Certificate number: Liao Shi He Zi No. 033
Medicine preparation: drugs were added in 0.2% Polysorbate 80 (Tween-80) to make suspension. The dosage of tested compounds was indicated with mg/kg.
Test period and Observed index: observed for one week after the administration. The toxic reaction information of the mice was recorded everyday during the observation period. The death of mice was regarded as the principal index. Half lethal doses (LD50, mg/kg) of the compounds one week after the drug administration were calculated according to the method of weighted regression.

[2] = tested on: Human breast carcinoma cells (MCF-7); test: MTT growth inhibition of MCF-7; type: cell-based; details: MCF7, 96 h, MCF-7, MTT, 4 days, read-out: IG50 MCF-7
Procedure: (§1) In Vitro Anti-Tumor Activity Test
(§2) Put cell suspension into centrifugal tubes with a pipette under sterile conditions, then the cell suspension was centrifuged for 3 minutes at 1300 rpm. Discarded the supernatant lightly and added fresh culture medium. Mixed the cells by pipetting, then transferred the cells into culture flasks, and put them into the CO2 incubator. Changed the culture medium once after 24 hours.
(§3) Human prostate cancer cells (DU145, PC-3) were cultured in a medium containing RPMI1640 basic medium supplemented with 10% heat-inactivated FBS, 100 IU/mL penicillin, 100 μg/mL streptomycin and 1 mmol/L L-glutamine. Human breast carcinoma cells (T47D, MDA-MB231) were cultured in a medium containing RPM11640 basic medium supplemented with 10% heat-inactivated FBS, 5 μg/mL insulin, 100 IU/mL penicillin, 100 μg/mL streptomycin and 1 mmol/L L-glutamine. Human breast carcinoma cells (MCF-7) were cultured in a medium containing DMEM basic medium supplemented with 10% heat-inactivated FBS, 5 μg/mL insulin, 100 IU/mL penicillin, 100 μg/mL streptomycin and […]. Murine Lewis lung cancer cells (LL/2), murine melanoma cells (B16FD) and Microvascular Endothelial Cells (MVEC) were cultured in a medium containing DMEM basic medium supplemented with 10% heat-inactivated FBS, 4.5 g/L glucose, 1.5 g/L NaHCO3, 100 IU/mL penicillin, 100 μg/mL streptomycin and 4 mmol/L L-glutamine. All these cell lines were incubated at 37° C. biochemical incubator with 5% CO2 saturated humidity.
(§4) After resuscitation, the cells were passed for 2-3 generations till they became stable, then they were used for the experiments. Each passage was based on the standard that all cells were spread over the bottoms of culture flasks.
(§5) Cells were digested off from the bottoms of culture flasks with trypsin (0.25%). The cell dissociation buffer was transferred into centrifuge tubes, added medium to stop the digestion, and centrifuged for 3 minutes at 1300 rpm. […]
(§6) Added 50 μL MTT liquids (2 mg/mL) into each well, put the culture plates into the biochemical incubator for 4 h, discarded MTT liquids (TCC), added 200 μL DMSO, then oscillated for 10 minutes on the magnetic oscillator to make sure that the survived cells and the reaction product of MTT were fully dissolved. Detected and recorded the absorbance (OD) values of each well at the wavelength of 570 nm using the microplate reader. […] The cell growth inhibition rates under each drug concentration were calculated by the following formula. […] Inhibition rate of growth(%)=(1−The absorbance(OD)of cells with tested drugs/The absorbance(OD)of the blank control group)×100%
(§7) The absorbance (OD) of cells with tested drugs: OD value is measured with the test drugs.
(§8) The absorbance (OD) of the blank control group: OD value is measured without the test drugs. […]

[3] = tested on: Human Umbilical Vein Endothelial Cells (HUVEC); test: MTT growth inhibition of HUVEC; type: cell-based; details: 96 h, 4 days, read-out: IG50 HUVEC
Procedure: as §1, §2, §4
(§9) Cells were digested off from the bottoms of culture flasks with trypsin (0.25%). The cell dissociation buffer was transferred into centrifuge tubes, added medium to stop the digestion, and centrifuged for 3 minutes at 1300 rpm. Discarded the supernatant lightly and added fresh culture medium (5 mL). Mixed the cells by pipetting, then added 10 μL of the cell suspension into the cell counting plate, and adjusted the cell concentration to 2×10^4 cells/mL. Added 100 μL of the cell suspension to all wells on the 96 well plates, except A1 well as the blank control. Put the plates into the biochemical incubator for 24 hours and to make sure the cells grew along the walls.
The drugs were dissolved in 80 mmol/L DMSO first, and then diluted the drugs with ethanol to 8 mmol/L. The solution was further diluted with the culture medium to different concentrations as 160 μmol/L, 120 μmol/L, 80 μmol/L, 40 μmol/L, 20 μmol/L and 10 μmol/L. Added 100 μL of the drug solution to each well on the 96 well plates. Therefore, the final concentrations of the drugs that were added to the cells were 80 μmol/L, 40 μmol/L, 20 μmol/L, 10 μmol/L and 5 μmol/L, and each concentration were repeated in three parallel wells. Put the culture plates into the biochemical incubator to culture continuously for 4 days.
Added 50 μL MTT liquids (2 mg/mL) into each well, put the culture plates into the biochemical incubator for 4 h, discarded MTT liquids (TCC), added 200 μL DMSO, then oscillated for 10 minutes on the magnetic oscillator to make sure that the survived cells and the reaction product of MTT were fully dissolved. Detected and recorded the absorbance (OD) values of each well at the wavelength of 570 nm using the microplate reader. The OD values of cells without tested drugs were used as control. The cell growth inhibition rates under each drug concentration were calculated by the following formula. […] Inhibition rate of growth(%)=(1−The absorbance(OD)of cells with tested drugs/The absorbance(OD)of the blank control group)×100%
as §7
The absorbance (OD) of the blank control group: OD value is measured without the test drugs.
8) The Growth Inhibition Effect of Compounds on Human Breast Carcinoma Cells (T47D, MDA-MB231, MCF-7), Human Prostate Cancer (DUI45, PC-3), Murine Lewis Lung Cancer Cells (LL/2), Murine Melanoma Cells(B16F0) and Human Umbilical Vein Endothelial Cells (HUVEC) (Table 2).

[4] = tested on: Human breast carcinoma cells (MDA-MB231); test: MTT growth inhibition of MDA-MB231; type: cell-based; details: MDA-MB-231, 96 h, 4 days, read-out: IG50 MDA-MB231
Procedure: as §1, §2, §3, §4, §5, §6, §7, §8

[5] = tested on: Human breast carcinoma cells (T47D); test: MTT growth inhibition of T47D; type: cell-based; details: 96 h, 4 days, read-out: IG50 T47D
Procedure: as §1, §2, §3, §4
as §9, with “walls. […]” for “walls.”
as §6, §7, §8

[6] = tested on: murine melanoma cells (B16F0); test: MTT growth inhibition of B16F0; type: cell-based; details: Mus musculus, 96 h, 4 days, read-out: IG50 B16F0
Procedure: as §1, §2, §3, §4
as §9, with “walls. […]” for “walls.”
as §6, §7, §8

[7] = tested on: Human prostate cancer cells (PC-3); test: MTT growth inhibition of PC-3; type: cell-based; details: 96 h, PC-3, MTT, 4 days, read-out: IG50 PC-3
Procedure: as §1, §2, §3, §4
as §9, with “walls. […]” for “walls.”
as §6, §7, §8

[8] = tested on: Murine Lewis lung cancer cells (LL/2); test: MTT growth inhibition of LL/2; type: cell-based; details: Mus musculus, Lewis lung carcinoma, 96 h; LL/2, MTT, 4 days; read-out: IG50 LL/2
Procedure: as §1, §2, §3, §4
as §9, with “walls. […]” for “walls.”
as §6, §7, §8

[9] = tested on: Microvascular Endothelial Cells (MVEC); test: MTT growth inhibition of MVEC; type: cell-based; details: Endothelial cell, 96 h, 4 days culture with drug, read-out: IG50 on inhibiting growth of MVEC
Method in brief: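 MVEC were seeded at 2×10^4 cells/mL in DMEM with 10% FBS and allowed to attach for 24 h, then treated with compound at final concentrations of 5–80 μmol/L (triplicates) for 4 days at 37 °C. MTT (4 h) absorbance at 570 nm gave % growth inhibition relative to untreated cells.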

[10] = tested on: Human prostate cancer cells (DU145); test: MTT growth inhibition of DU145; type: cell-based; details: DU-145, 96 h, 4 days, read-out: IG50 DU145
Procedure: as §1, §2, §3, §4
as §9, with “walls. […]” for “walls.”
as §6, §7, §8

[11] = tested on: Rat aortic ring; test: Rat Aortic Ring Assay; type: cell-based; details: for Rat Aortic Ring Assay (10 ug/ml), result in words: observed on the sixth day
Method in brief: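 1 mm abdominal aortic rings from 6-week-old SD animals embedded in Matrigel, cultured in DMEM/10% FBS with compound at various concentrations (≥3 wells), medium and compound renewed day 3. Microvessel area imaged on day 6 (×100, 3 random rings); inhibition rate scored: ⋆<30-60%, ⋆⋆60-90%, ⋆⋆⋆>90%.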

[12] = molecular target: VEGFR-2 (Homo sapiens, UniProt P35968); test: VEGFR-2 inhibition rate test (kinase assay kit, colorimetric ELISA); details: concentration not given
VEGFR-2, sequence (P35968 20-1356): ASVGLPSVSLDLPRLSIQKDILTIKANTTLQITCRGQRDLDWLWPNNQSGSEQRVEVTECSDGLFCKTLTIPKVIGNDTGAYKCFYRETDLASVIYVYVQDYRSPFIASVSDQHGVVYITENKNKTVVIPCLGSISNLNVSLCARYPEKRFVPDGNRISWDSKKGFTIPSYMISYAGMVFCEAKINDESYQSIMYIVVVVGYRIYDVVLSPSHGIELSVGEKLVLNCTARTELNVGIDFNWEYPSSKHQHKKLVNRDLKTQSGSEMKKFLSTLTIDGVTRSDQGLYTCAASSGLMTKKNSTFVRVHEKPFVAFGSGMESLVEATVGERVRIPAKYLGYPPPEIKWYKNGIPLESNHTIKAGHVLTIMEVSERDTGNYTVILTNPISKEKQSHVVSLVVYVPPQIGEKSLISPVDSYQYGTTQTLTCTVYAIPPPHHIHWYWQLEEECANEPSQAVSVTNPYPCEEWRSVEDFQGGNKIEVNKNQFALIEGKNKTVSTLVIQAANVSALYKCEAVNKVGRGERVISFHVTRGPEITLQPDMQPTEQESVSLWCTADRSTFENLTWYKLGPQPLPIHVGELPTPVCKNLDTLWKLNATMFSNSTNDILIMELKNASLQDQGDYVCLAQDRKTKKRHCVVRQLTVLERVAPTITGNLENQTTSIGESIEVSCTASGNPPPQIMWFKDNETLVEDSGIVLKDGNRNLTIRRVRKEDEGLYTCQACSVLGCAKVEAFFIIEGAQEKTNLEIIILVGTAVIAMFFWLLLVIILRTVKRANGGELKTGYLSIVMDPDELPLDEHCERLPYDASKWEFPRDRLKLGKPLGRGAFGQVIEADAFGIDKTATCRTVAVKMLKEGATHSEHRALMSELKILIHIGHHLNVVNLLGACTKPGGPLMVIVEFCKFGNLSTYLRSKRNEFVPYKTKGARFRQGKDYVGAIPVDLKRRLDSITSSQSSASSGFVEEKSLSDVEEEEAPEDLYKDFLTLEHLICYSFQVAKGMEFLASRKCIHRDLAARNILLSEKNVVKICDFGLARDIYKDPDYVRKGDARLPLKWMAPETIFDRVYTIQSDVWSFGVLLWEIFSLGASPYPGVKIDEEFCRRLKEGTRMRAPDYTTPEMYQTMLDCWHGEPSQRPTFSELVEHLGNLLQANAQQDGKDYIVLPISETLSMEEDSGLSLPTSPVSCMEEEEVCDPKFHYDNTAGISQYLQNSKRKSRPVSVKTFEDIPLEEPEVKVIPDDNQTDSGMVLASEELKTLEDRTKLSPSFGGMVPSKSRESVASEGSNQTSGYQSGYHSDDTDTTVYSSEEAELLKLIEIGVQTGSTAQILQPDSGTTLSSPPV

[13] = tested on: chorioallantoic membrane vessels; test: Activity test by chick chorioallantoic membrane method; type: in vivo; details: 5 uL medicine on cellulose membrane, chick embryo, 2 days
Procedure: After the shell membrane became wet, tore it open with ophthalmological tweezers so to expose the chorioallantoic membrane. • 6) Added 5 uL of selected medicine to a 0.5×0.5 cm cellulose membrane sterilized by high pressure, then set the membrane on the part of the chorioallantoic membrane with fewer vessels • 7) Closed the window, and put the embryos back into the hatch box to hatch for 2 days. • 8) Opened the transparent tape, and then opened the mixed cellulose membrane lightly with a tweezers. Measured the avascular area and took photographs.

Row | Compound | LD50 at 1 week [1] [mg/kg] | IC50 [2] [µM] | IC50 [3] [µM] | IC50 [4] [µM] | IC50 [5] [µM] | IC50 [6] [µM] | IC50 [7] [µM] | IC50 [8] [µM] | IC50 [9] [µM] | IC50 [10] [µM] | inhibition at 10 µg/mL ([11]; Rattus norvegicus, 10 ug/ml, compared with blank control, sixth day) [%] | Kinase inhibition rate (VEGFR-2) [12] | The inhibitory effect on the growth of chorioallantoic membrane vessels [13] | Rat Aortic Ring Assay (10 ug/ml), result in words [11]
1 | CCCCOc1cc2nnnc(Nc3ccc(C)cc3)c2cc1OC [Example 27, 6-methoxy-7-n-butoxy-4-(4-methylanilino)-benzo[d][1,2,3]triazine] | 733 | 6.17 | 5.06 | 19.6 | 18.4 | 22.2 | 15.8 | 15.7 | 9.09 | 15.1 | – | – | – | –
2 | COc1cc2c(Nc3cccc(C(F)(F)F)c3)nnnc2cc1OCCCCl [Example 67, 6-methoxy-7-chloropropoxy-4-(3-trifluoromethylanilino)-benzo[d][1,2,3]triazine] | – | – | – | – | – | – | – | – | 21.4 | – | > 50 | 0.26 | The embryo is dead. | –
3 | COc1cc2c(Nc3ccc(F)c(Cl)c3)nnnc2cc1OCCCCl [Example 72, 6-methoxy-7-chloropropoxy-4-(3-chloro-4-fluoroanilino)-benzo[d][1,2,3]triazine] | – | – | 3.73 | – | 5.04 | 5.19 | 6.91 | 3.79 | 7.98 | 4.96 | – | −14.70 | – | –
4 | COc1cc2c(Nc3ccc(F)cc3)nnnc2cc1OCCCCl [Example 76, 6-methoxy-7-chloropropoxy-4-(4-fluoroanilino)-benzo[d][1,2,3]triazine] | – | – | – | – | – | – | – | – | 23.1 | – | – | 9.35 | The vessels become rare at the zone covered by paper. | No significant inhibition
5 | FC(F)(F)c1cccc(Nc2nnnc3ccc(Cl)nc23)c1 [Example 84, 6-chloro-4-(3-trifluoromethylanilino)pyrido[3,2-d][1,2,3]triazine] | 424 | 3.95 | 3.02 | 5.1 | 5.87 | 4.28 | 6.9 | 4.79 | 5.25 | 5.9 | – | – | – | Almost complete inhibition (10 μg/mL), vascular ring was dead
6 | FC(F)(F)Oc1cccc(Nc2nnnc3ccc(Cl)nc23)c1 [Example 86, 6-chloro-4-(3-trifluoromethoxyanilino)pyrido[3,2-d][1,2,3]triazine] | 292 | 4.55 | 2.21 | 4.71 | 6.42 | 4.67 | 5.99 | 4.13 | 4.28 | 4.14 | – | 29.93 | – | Almost complete inhibition (10 μg/mL), vascular ring was dead
7 | Clc1ccc(Nc2nnc(Cc3ccncc3)c3ccccc23)cc1 [PTK787, Vatalanib succinate, reference compound] | – | 12.3 | > 40 | 24.2 | 36.3 | 21.4 | 63.7 | 35 | 38.1 | 41.3 | – | – | There is no vascular growth. | –
